These results are taken from paper PMC5603227 (ChemMedChem, 2017).

For data set [1], the system named is Mtb H37Rv in infected THP-1 cells. Kind of data set: Intracellular activity in infected THP-1 cells. Type of data set: cell-based. To be noted: Mycobacterium tuberculosis, read-out: MIC against intracellular Mtb.
In another data set the test system is HepG2 cells. Briefly: cells. Type of data set: cell-based, human.
Data set [2] concerns Mycobacterium tuberculosis H37Rv. Briefly: Microplate alamar blue assay. It is filed as cell-based. A general note: Resazurin is reduced to fluorescent resorufin, in cell work by metabolically active cells.
The target of another data set is CYP2C8 (Homo sapiens, UniProt P10632). Kind of data set: biochemical.
Another data set has as its target CYP3A4 (Homo sapiens, UniProt P08684). Kind of data set: biochemical. To be noted: Cytochrome P450 Inhibition IC50 CYP3A4.
Data set [3] is described as follows: in vitro. To be noted: plasma.
Data set [4] in a line: in vitro. To be noted: human; for Papp A→B at 1 h / Papp A→B at 2 h / Papp B→A at 1 h / Papp B→A at 2 h: Caco-2; for efflux ratio: Caco-2, Caco-2 Efflux Ratio (average).
Data set [5] is described as follows: in vitro. To be noted: human; for microsomal CLint: s9; for half-life: s9, Human liver S9 Microsomes T ½.
A further data set addresses CYP2C9 (Homo sapiens, UniProt P11712). Kind of data set: biochemical.
A further data set deals with CYP2D6 (Homo sapiens, UniProt P10635). Kind of data set: biochemical.
The target in a further data set is CYP2B6 (Homo sapiens, UniProt P20813). Briefly: biochemical.
Another data set addresses CYP2C19 (Homo sapiens, UniProt P33261). Briefly: biochemical.
The test system of a further data set is Caco-2 cell monolayer. To be noted: human.
In data set [6] the test system is THP-1 human monocytic cell line. Kind of data set: THP-1 cytotoxicity. To be noted: macrophage cytotoxicity relative to intracellular MIC.
A further data set deals with Mycobacterium avium. Briefly: MIC against non-tuberculous mycobacteria. It is filed as cell-based. To be noted: read-out: MIC M. avium.
The nature of data set [7]: Relative aqueous solubility by turbidity in 7H9/ADC/Tween medium. To be noted: 200 μM highest concentration tested.
[8] abbreviates: Homo sapiens, HepG2, read-out: IC50 HepG2 Gal, galactose medium.
The mark [9] stands for this setting: Homo sapiens, HepG2, read-out: IC50 HepG2 Glu, glucose medium.

Converted amounts (≈) assume the structure as drawn. “And” between values parts separate entries of the source, which are not always exact repeats. Identical values can stand only once. Like-named read-outs stand apart in the source and are kept apart here.

Chain of CYP3A4 (P08684 whole entry): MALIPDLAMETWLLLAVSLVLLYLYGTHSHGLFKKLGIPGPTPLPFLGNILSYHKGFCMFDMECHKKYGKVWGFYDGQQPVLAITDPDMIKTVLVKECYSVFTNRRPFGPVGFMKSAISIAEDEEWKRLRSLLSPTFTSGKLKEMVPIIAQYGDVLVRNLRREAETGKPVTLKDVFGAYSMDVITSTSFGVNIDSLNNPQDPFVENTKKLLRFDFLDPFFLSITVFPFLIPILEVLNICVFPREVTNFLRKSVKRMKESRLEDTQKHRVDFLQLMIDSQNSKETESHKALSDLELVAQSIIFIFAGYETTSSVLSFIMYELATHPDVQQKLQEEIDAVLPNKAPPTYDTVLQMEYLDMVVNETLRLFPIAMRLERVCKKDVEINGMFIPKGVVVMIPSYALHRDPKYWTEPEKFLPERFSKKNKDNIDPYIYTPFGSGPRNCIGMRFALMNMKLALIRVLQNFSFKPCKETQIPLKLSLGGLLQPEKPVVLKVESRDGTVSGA
Chain of CYP2C9 (P11712 whole entry): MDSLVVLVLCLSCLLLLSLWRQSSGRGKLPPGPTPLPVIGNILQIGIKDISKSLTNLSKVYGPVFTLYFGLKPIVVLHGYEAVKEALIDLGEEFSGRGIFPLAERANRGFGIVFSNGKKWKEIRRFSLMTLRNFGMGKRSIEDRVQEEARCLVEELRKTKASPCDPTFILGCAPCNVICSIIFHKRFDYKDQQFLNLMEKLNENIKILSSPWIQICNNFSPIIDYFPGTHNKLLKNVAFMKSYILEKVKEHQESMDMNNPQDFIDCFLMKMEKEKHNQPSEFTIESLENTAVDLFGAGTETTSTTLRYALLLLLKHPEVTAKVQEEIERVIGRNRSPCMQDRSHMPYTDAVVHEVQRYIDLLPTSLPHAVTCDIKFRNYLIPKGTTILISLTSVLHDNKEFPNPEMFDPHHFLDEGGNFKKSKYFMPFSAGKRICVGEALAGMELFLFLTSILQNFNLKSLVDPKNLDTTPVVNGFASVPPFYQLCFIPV
Chain of CYP2B6 (P20813 whole entry): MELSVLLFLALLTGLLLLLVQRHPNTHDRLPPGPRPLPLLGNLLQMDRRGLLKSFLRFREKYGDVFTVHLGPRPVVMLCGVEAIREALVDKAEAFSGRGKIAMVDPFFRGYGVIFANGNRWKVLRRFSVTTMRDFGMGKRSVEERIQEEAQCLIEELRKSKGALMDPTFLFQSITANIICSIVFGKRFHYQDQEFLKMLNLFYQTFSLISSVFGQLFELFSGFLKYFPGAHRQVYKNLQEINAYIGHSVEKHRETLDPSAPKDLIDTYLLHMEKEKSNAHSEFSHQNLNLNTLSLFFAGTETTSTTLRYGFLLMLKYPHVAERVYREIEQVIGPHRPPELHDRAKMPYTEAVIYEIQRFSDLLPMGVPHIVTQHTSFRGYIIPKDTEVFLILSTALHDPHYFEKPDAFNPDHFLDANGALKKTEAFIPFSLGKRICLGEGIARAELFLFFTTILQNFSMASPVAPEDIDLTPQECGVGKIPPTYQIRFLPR
Chain of CYP2C19 (P33261 whole entry): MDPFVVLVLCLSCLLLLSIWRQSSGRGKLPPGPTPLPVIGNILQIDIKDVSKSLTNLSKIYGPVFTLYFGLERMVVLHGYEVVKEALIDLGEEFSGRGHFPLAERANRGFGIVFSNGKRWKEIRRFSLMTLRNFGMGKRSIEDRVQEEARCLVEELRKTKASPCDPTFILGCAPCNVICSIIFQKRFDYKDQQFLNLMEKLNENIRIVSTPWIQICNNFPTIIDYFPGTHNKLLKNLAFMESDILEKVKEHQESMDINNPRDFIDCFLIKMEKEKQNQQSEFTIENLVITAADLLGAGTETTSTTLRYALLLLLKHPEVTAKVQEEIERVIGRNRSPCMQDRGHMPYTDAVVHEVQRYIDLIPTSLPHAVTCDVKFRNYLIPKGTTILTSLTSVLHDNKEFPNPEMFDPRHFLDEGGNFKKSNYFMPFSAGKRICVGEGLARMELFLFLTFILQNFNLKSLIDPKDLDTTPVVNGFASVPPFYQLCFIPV
Chain of CYP2D6 (P10635 whole entry): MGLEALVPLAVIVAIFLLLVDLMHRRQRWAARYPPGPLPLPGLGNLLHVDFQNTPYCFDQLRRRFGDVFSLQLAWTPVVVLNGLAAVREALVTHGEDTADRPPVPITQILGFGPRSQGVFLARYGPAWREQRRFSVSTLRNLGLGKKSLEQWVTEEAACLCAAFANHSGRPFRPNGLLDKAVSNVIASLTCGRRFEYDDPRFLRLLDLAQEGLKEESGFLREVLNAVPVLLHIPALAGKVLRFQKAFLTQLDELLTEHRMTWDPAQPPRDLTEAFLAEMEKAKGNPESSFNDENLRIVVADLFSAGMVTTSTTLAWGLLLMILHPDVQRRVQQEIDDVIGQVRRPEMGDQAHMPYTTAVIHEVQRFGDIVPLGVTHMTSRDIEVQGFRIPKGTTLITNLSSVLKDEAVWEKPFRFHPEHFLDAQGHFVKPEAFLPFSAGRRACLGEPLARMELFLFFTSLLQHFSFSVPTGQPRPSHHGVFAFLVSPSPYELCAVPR
Chain of CYP2C8 (P10632 whole entry): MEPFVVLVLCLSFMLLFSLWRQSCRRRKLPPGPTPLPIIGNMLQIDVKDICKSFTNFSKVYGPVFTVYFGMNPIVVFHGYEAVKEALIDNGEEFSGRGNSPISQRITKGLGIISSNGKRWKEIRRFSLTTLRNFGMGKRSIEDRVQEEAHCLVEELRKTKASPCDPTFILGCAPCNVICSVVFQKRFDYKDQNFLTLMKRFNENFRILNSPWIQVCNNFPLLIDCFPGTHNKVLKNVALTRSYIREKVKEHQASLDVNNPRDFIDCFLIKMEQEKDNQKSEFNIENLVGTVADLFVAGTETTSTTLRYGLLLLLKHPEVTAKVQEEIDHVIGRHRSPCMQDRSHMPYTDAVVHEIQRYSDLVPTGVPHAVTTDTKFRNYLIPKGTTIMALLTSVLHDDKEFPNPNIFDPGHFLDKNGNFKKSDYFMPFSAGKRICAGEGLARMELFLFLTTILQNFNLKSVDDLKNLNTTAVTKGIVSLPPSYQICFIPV

The term MIC denotes the smallest concentration in the dilution series that meets the test's criterion for growth inhibition. Take `NNC(=O)c1ccncc1` [INH, Isoniazid, reference compound]: in data set [1], the MIC was 0.37 µM (≈ 0.0507 µg/mL).

By IC50 is commonly meant the concentration that gives 50% inhibition. Turning to `Cc1ccc2nc(C)c(C(=O)NCc3cccc(S(F)(F)(F)(F)F)c3)n2c1` [Compound 16, 2,6-Dimethyl-N-(3-(pentafluoro-λ^6-sulfanyl)benzyl)imidazo[1,2-a]pyridine-3-carboxamide], the IC50 in the data set on HepG2 cells (setting [8]) and in the data set with HepG2 cells (setting [9]) was more than 25 µM each time. The compound further had an MIC in data set [2] of less than 0.1 µM.

In general, fraction unbound refers to free concentration divided by total concentration. Lower therefore signals little free substance. The term Papp A→B denotes how fast a substance crosses the layer from the apical side. Read a high Papp A→B as fast passage. A word on the Papp B→A: it is the apparent permeability from the basolateral to the apical side of a cell layer. What is called efflux ratio is the permeability from basolateral to apical divided by that in the opposite direction, in the common usage. Broadly, the microsomal CLint is a measure of how fast metabolising enzymes remove a compound, apart from limits set by blood flow. A high value points to faster metabolism. As usually defined, the half-life is the time in which the quantity being followed falls by half. Consider `CCc1nc2ccc(Cl)cn2c1C(=O)NCc1cccc(S(F)(F)(F)(F)F)c1` [Compound 18, 6-Chloro-2-ethyl-N-(3-(pentafluoro-λ^6-sulfanyl)benzyl)imidazo[1,2-a]pyridine-3-carboxamide], for which the IC50 in the data set on HepG2 cells (setting [8]) is more than 25 µM; in the data set with HepG2 cells (setting [9]), more than 25 µM; against CYP2C8 it was 14.4 µM; against CYP3A4, 8.4 µM and > 20 µM; against CYP2C9 it was 10.4 µM; on CYP2D6 it was 6.5 µM. In addition, the IC50 came out at 8.4 µM on CYP2B6 and 10.6 µM against CYP2C19. Besides, the fraction unbound in “in vitro [3]” worked out at 0.001. In addition, in the data set “in vitro [4]”, the Papp A→B at 1 h was found to be 1.09 ×10⁻⁶ cm/s. In “in vitro [4]”, this compound gave a Papp A→B at 2 h of 1.99 ×10⁻⁶ cm/s. Also, the Papp B→A at 1 h in the data set “in vitro [4]” came to 3.65 ×10⁻⁶ cm/s. In “in vitro [4]”, this compound displayed a Papp B→A at 2 h of 5.61 ×10⁻⁶ cm/s. Further, in “in vitro [4]”, the efflux ratio came out at 3.2. This compound displayed a microsomal CLint in the data set “in vitro [5]” of 89.7 µL/min/mg. Further, in “in vitro [5]”, the half-life amounted to 25.8 min. Moreover, in the data set with Caco-2 cell monolayer, the “Caco-2 Efflux Ratio (average)” value came to 3.16.

As for `CCc1nc2ccc(Cl)cn2c1C(=O)NCc1ccc(S(F)(F)(F)(F)F)cc1` [Compound 17, 6-Chloro-2-ethyl-N-(4-(pentafluoro-λ^6-sulfanyl)benzyl)imidazo[1,2-a]pyridine-3-carboxamide], the IC50 with HepG2 cells (setting [8]) and in the data set with HepG2 cells (setting [9]) was more than 25 µM each time. Further, the therapeutic window in [6] is reported as more than 100. Also, in data set [1], the MIC was less than 0.01 µM.

Regarding `Cc1ccn2c(C(=O)NCc3cccc(S(F)(F)(F)(F)F)c3)c(C)nc2c1` [Compound 14, 2,7-Dimethyl-N-(3-(pentafluoro-λ^6-sulfanyl)benzyl)imidazo[1,2-a]pyridine-3-carboxamide], the IC50 in the data set on HepG2 cells (setting [8]) and in the data set with HepG2 cells (setting [9]) was more than 25 µM each time. Also, the MIC with Mycobacterium avium is 200 µM (≈ 81.1 µg/mL).

In data set [7], `CC/C(=C(/CC)c1ccc(O)cc1)c1ccc(O)cc1` [diethylstilbestrol] had an Aq. sol of 125 µM.

As to `Cc1ccn2c(C(=O)NCc3ccc(S(F)(F)(F)(F)F)cc3)c(C)nc2c1` [Compound 13, 2,7-Dimethyl-N-(4-(pentafluoro-λ^6-sulfanyl)benzyl)imidazo[1,2-a]pyridine-3-carboxamide], the IC50 with HepG2 cells (setting [8]) and in the data set with HepG2 cells (setting [9]) was more than 25 µM each time. In addition, the values for the MIC in [2] and in [1] were less than 0.1 µM and less than 0.01 µM, respectively.

`Cc1cn2c(C(=O)NCc3cccc(S(F)(F)(F)(F)F)c3)c(C)nc2s1` [Compound 20, 2,6-Dimethyl-N-(3-(pentafluoro-λ^6-sulfanyl)benzyl)imidazo[2,1-b]thiazole-5-carboxamide]: the IC50 in the data set with HepG2 cells (setting [8]) was 14 µM; in the data set with HepG2 cells (setting [9]), more than 25 µM; in the data set on HepG2 cells (read-out: IC50 HepG2 Gal, galactose medium) it was 14.1 µM.

As for `CC(=O)NC[C@H]1CN(c2ccc(N3CCOCC3)c(F)c2)C(=O)O1` [LIN, linezolid, reference compound], the IC50 in the data set with HepG2 cells (setting [8]) and in the data set with HepG2 cells (setting [9]) was more than 25 µM throughout.

Regarding `Cc1cn2c(C(=O)NCc3ccc(S(F)(F)(F)(F)F)cc3)c(C)nc2s1` [Compound 19, 2,6-Dimethyl-N-(4-(pentafluoro-λ^6-sulfanyl)benzyl)imidazo[2,1-b]thiazole-5-carboxamide], the “Human liver S9 Microsomes T ½” value is 13.3 min. For the same compound, the IC50 with HepG2 cells (setting [8]) was more than 25 µM. Also, the IC50 in the data set on HepG2 cells (setting [9]) is more than 25 µM. Besides, the IC50 against CYP2C8 is more than 20 µM. Also, the MIC in [2] is less than 0.1 µM. Further, the IC50 against CYP3A4 was more than 20 µM. In “in vitro [3]”, this compound gave a fraction unbound of 0.003. Moreover, the MIC in the data set on Mycobacterium avium came to 200 µM (≈ 82.3 µg/mL). Further, in the data set “in vitro [4]”, the Papp A→B at 1 h amounted to 6.35 ×10⁻⁶ cm/s, the Papp A→B at 2 h worked out at 12.1 ×10⁻⁶ cm/s, the Papp B→A at 1 h turned out to be 8.35 ×10⁻⁶ cm/s and the Papp B→A at 2 h was 8.1 ×10⁻⁶ cm/s. Further, the efflux ratio in the data set “in vitro [4]” was less than 1. In the data set “in vitro [5]”, this compound came in with a microsomal CLint of 175 µL/min/mg and a half-life of 13.5 min. For the same compound, on CYP2C9, 14 µM corresponded to half-maximal inhibition (IC50). Moreover, inhibition at CYP2D6 was half-maximal at 13.4 µM (IC50). The compound also yielded an IC50 on CYP2B6 of more than 20 µM. Moreover, 13.5 µM corresponded to half-maximal inhibition against CYP2C19 (IC50). For the same compound, in the data set on Caco-2 cell monolayer, the “Caco-2 Efflux Ratio (average)” value is reported as 0.988.

For the compound `Cc1ccc2nc(C)c(C(=O)NCc3ccc(S(F)(F)(F)(F)F)cc3)n2c1` [Compound 15, 2,6-Dimethyl-N-(4-(pentafluoro-λ^6-sulfanyl)benzyl)imidazo[1,2-a]pyridine-3-carboxamide], the IC50 in the data set with HepG2 cells (setting [8]) and in the data set with HepG2 cells (setting [9]) was more than 25 µM throughout. For the same compound, the MIC in [2] was less than 0.1 µM; in data set [1], less than 0.01 µM.
